Values after ≈ are worked out from the molar mass of the structure shown. Where two headings read alike, the source gives them in different places.
Experiments:
[1] = pH and Ka of 10-g/L aqueous solutions (pH meter); type: physicochemical; details: 10-g/L solution in distilled, deionized water
MRSA isolates = experiment: MIC/MBC, CLSI broth microdilution, MRSA isolates; type: cell-based, Staphylococcus aureus
[2] = test system: Staphylococcus epidermidis isolates; experiment: microbe, parasite or virus in culture; type: cell-based; details: 21 Staphylococcus epidermidis isolates
Enterococcus faecalis = experiment: MIC/MBC against Enterococcus faecalis; type: cell-based
Streptococcus pyogenes = experiment: MIC/MBC against Streptococcus pyogenes; type: cell-based; details: for MBC: Streptococcus pyogenes
Pseudomonas aeruginosa = experiment: MIC against Pseudomonas aeruginosa; type: cell-based
[3] = test system: MRSA isolate SAD05 biofilms; type: cell-based, Staphylococcus aureus
[4] = test system: human dermal fibroblast (HDF) cells; experiment: alamarBlue cell viability assay, HDF; details: HDFs, 24-hour incubation, non-linear regression
[5] = test system: human bronchial epithelial (16HBE) cells; experiment: alamarBlue cell viability assay, 16HBE; details: 24-hour incubation, non-linear regression
[6] = test system: erythrocytes (sheep blood); experiment: Hemolytic activity against sheep erythrocytes; details: higher than MIC90
[7] = Staphylococcus aureus, MRSA, pH 5.5, MRSA 0606, pH 5.5
[8] = Staphylococcus aureus, MRSA, pH 5.5, MRSA 0608, pH 5.5
[9] = Staphylococcus aureus, MRSA, pH 5.5, MRSA 0634, pH 5.5
[10] = Staphylococcus aureus, MRSA, pH 5.5, MRSA 0641, pH 5.5
[11] = Staphylococcus aureus, MRSA, pH 5.5, MRSA 0646, pH 5.5
[12] = Staphylococcus aureus, MRSA, pH 5.5, TCH 1516, pH 5.5
[13] = Staphylococcus aureus, MRSA, pH 6.5, MRSA 0606, pH 6.5
[14] = Staphylococcus aureus, MRSA, pH 6.5, MRSA 0608, pH 6.5
[15] = Staphylococcus aureus, MRSA, pH 6.5, MRSA 0634, pH 6.5
[16] = Staphylococcus aureus, MRSA, pH 6.5, MRSA 0641, pH 6.5
[17] = Staphylococcus aureus, MRSA, pH 6.5, MRSA 0646, pH 6.5
[18] = Staphylococcus aureus, MRSA, pH 6.5, TCH 1516, pH 6.5
[19] = ATCC49532, Enterococcus faecalis (ATCC 49532)
[20] = ATCC51575, Enterococcus faecalis (ATCC 51575)
[21] = Streptococcus pyogenes (NR1571)

For `Oc1c(Br)cc(Br)cc1-c1cc(Br)cc(Br)c1O` [C58, MC21-A], the “acid dissociation constant (Ka)” value [1] was 1.26 × 10^−12, the pH of solution ([1]; room temperature) was 6.80 and the MBC (MRSA isolates; MRSA 0606, pH 7.4) was 6 µg/mL (≈ 12 µM). The MIC (MRSA isolates; MRSA 0606, pH 7.4) was 2 µg/mL (≈ 3.99 µM), the MBC (MRSA isolates; MRSA 0608, pH 7.4) was 4 µg/mL (≈ 7.97 µM) and the MIC (MRSA isolates; MRSA 0608, pH 7.4) was 2 µg/mL (≈ 3.99 µM). The MBC (MRSA isolates; MRSA 0634, pH 7.4) was 2 µg/mL (≈ 3.99 µM), the MIC (MRSA isolates; MRSA 0634, pH 7.4) was 2 µg/mL (≈ 3.99 µM) and the MBC (MRSA isolates; MRSA 0641, pH 7.4) was 4 µg/mL (≈ 7.97 µM). The MIC (MRSA isolates; MRSA 0641, pH 7.4) was 2 µg/mL (≈ 3.99 µM), the MBC (MRSA isolates; MRSA 0646, pH 7.4) was 4 µg/mL (≈ 7.97 µM) and the MIC (MRSA isolates; MRSA 0646, pH 7.4) was 2 µg/mL (≈ 3.99 µM). For the same compound, the MIC90 (MRSA isolates; Staphylococcus aureus, MRSA) was 2 µg/mL (≈ 3.99 µM), the MBC (MRSA isolates; [7]) was 0.5 µg/mL (≈ 0.996 µM) and the MIC (MRSA isolates; [7]) was 0.5 µg/mL (≈ 0.996 µM). The MBC (MRSA isolates; [8]) was 0.5 µg/mL (≈ 0.996 µM), the MIC (MRSA isolates; [8]) was 0.5 µg/mL (≈ 0.996 µM) and the MBC (MRSA isolates; [9]) was 0.5 µg/mL (≈ 0.996 µM). For the same compound, the MIC (MRSA isolates; [9]) was 0.5 µg/mL (≈ 0.996 µM), the MBC (MRSA isolates; [10]) was 0.5 µg/mL (≈ 0.996 µM) and the MIC (MRSA isolates; [10]) was 0.5 µg/mL (≈ 0.996 µM). It also gave an MBC (MRSA isolates; [11]) of 1 µg/mL (≈ 1.99 µM), an MIC (MRSA isolates; [11]) of 0.5 µg/mL (≈ 0.996 µM) and an MBC (MRSA isolates; [12]) of 1 µg/mL (≈ 1.99 µM). The MIC (MRSA isolates; [12]) was 1 µg/mL (≈ 1.99 µM), the MBC (MRSA isolates; Staphylococcus aureus, MRSA, pH 5.5, read-out: Average MBC, average of six MRSA isolates, pH 5.5) was 0.67 µg/mL (≈ 1.34 µM) and the MIC (MRSA isolates; Staphylococcus aureus, MRSA, pH 5.5, read-out: Average MIC, average of six MRSA isolates, pH 5.5) was 0.58 µg/mL (≈ 1.16 µM). For the same compound, the MBC (MRSA isolates; [13]) was 2 µg/mL (≈ 3.99 µM), the MIC (MRSA isolates; [13]) was 1 µg/mL (≈ 1.99 µM) and the MBC (MRSA isolates; [14]) was 2 µg/mL (≈ 3.99 µM). It also gave an MIC (MRSA isolates; [14]) of 2 µg/mL (≈ 3.99 µM), an MBC (MRSA isolates; [15]) of 2 µg/mL (≈ 3.99 µM) and an MIC (MRSA isolates; [15]) of 1 µg/mL (≈ 1.99 µM). The MBC (MRSA isolates; [16]) was 2 µg/mL (≈ 3.99 µM), the MIC (MRSA isolates; [16]) was 1 µg/mL (≈ 1.99 µM) and the MBC (MRSA isolates; [17]) was 2 µg/mL (≈ 3.99 µM). The MIC (MRSA isolates; [17]) was 1 µg/mL (≈ 1.99 µM), the MBC (MRSA isolates; [18]) was 2 µg/mL (≈ 3.99 µM) and the MIC (MRSA isolates; [18]) was 1 µg/mL (≈ 1.99 µM). The MBC (MRSA isolates; Staphylococcus aureus, MRSA, pH 6.5, read-out: Average MBC, average of six MRSA isolates, pH 6.5) was 2 µg/mL (≈ 3.99 µM), the MIC (MRSA isolates; Staphylococcus aureus, MRSA, pH 6.5, read-out: Average MIC, average of six MRSA isolates, pH 6.5) was 1.2 µg/mL (≈ 2.39 µM) and the MBC (MRSA isolates; Staphylococcus aureus, MRSA, pH 7.4, read-out: Average MBC, average of six MRSA isolates, pH 7.4) was 4 µg/mL (≈ 7.97 µM). It also gave an MIC (MRSA isolates; Staphylococcus aureus, MRSA, pH 7.4, read-out: Average MIC, average of six MRSA isolates, pH 7.4) of 2 µg/mL (≈ 3.99 µM), an MBC (MRSA isolates; Staphylococcus aureus, MRSA, read-out: MBC90, 39 evaluated MRSA isolates, CLSI broth microdilution) of 4 µg/mL (≈ 7.97 µM) and an MBC (MRSA isolates; TCH 1516, pH 7.4) of 4 µg/mL (≈ 7.97 µM). For the same compound, the MIC (MRSA isolates; TCH 1516, pH 7.4) was 2 µg/mL (≈ 3.99 µM), the “change of MIC and MBC with the reduction in pH” value (MRSA isolates; six MRSA isolates, pH lowered to 5.5) was “decreased as much as fourfold” and the MBC range [2] was 4 to 12 µg/mL. The MIC range [2] was 1 to 4 µg/mL, the MBC ([2]; read-out: MBC90) was 8 µg/mL (≈ 15.9 µM) and the MIC90 ([2]; read-out: MIC90) was 2 µg/mL (≈ 3.99 µM). The MBC (Enterococcus faecalis; [19]) was 12 µg/mL (≈ 23.9 µM), the MIC (Enterococcus faecalis; [19]) was 6 µg/mL (≈ 12 µM) and the MBC (Enterococcus faecalis; [20]) was 12 µg/mL (≈ 23.9 µM). The MIC (Enterococcus faecalis; [20]) was 6 µg/mL (≈ 12 µM), the MIC (Streptococcus pyogenes; [21]) was 4 µg/mL (≈ 7.97 µM) and the MIC (Streptococcus pyogenes; Streptococcus pyogenes (NR1575), read-out: MIC) was 4 µg/mL (≈ 7.97 µM). The MBC (Streptococcus pyogenes; [21]) was 16 µg/mL (≈ 31.9 µM), the MBC (Streptococcus pyogenes; Streptococcus pyogenes (NR1575)) was 12 µg/mL (≈ 23.9 µM) and the MIC (Pseudomonas aeruginosa; Pseudomonas aeruginosa (PAM57-15)) was > 32 µg/mL. The MIC (Pseudomonas aeruginosa; Pseudomonas aeruginosa (PAO1)) was > 32 µg/mL, the “concentration that completely eradicated biofilms” value ([3]; 72-hour biofilms of SAD05, MBEC assay) was 8 µg/mL and the “biofilm biomass, crystal violet assay” value ([3]; SAD05 biofilms, compared with vancomycin) was “lower biomass”. For the same compound, the LD50 [4] was 71.3 µg/mL, the LD50 [5] was 59.3 µg/mL and the “concentration where hemolytic activity begins relative to MIC90” value [6] was 32 fold.

— paper PMC10913730, “Antimicrobial activity of a natural compound and analogs against multi-drug-resistant Gram-positive pathogens” (Microbiology Spectrum, 2024)
